Patent publication US10793563B2, “GCN2 inhibitors and uses thereof” (Merck Patent GmbH, priority 2018, dated 2020)

Columns and labels:
GCN2 kinase = GCN2 kinase (Homo sapiens (Human), UniProt Q9P2K8); assay: GCN2 Enzyme Inhibition Assay (Transcreener ADP2 fluorescence polarization); type: biochemical; conditions: 280 μM ATP, 200 μM (RS)7 peptide, 4 nM GCN2, 25° C.; for Ki: Ki(app)
Summary of the method: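 Transcreener ADP2 fluorescence polarization detection of ADP from 4 nM GCN2 with (RS)7 substrate in 25 mM Tris-HCl pH 7.5, 50 mM NaCl, 10 mM MgCl2, 1 mM DTT. Compound pre-incubated with enzyme 10 min at 25 °C; reaction started by ATP, run 1 h at 25 °C. IC50 and Ki(app) by tight-binding fit.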

[1] = biological target: intracellular GCN2 (phosphorylation of the GCN2 substrate eIF2α) (Homo sapiens (Human), UniProt Q9P2K8); assay: GCN2 Cellular Inhibition Assay (AlphaScreen SureFire P-eIF2α Ser51, borrelidin-treated U2OS cells); type: cell-based; conditions: 10 μM borrelidin, 1 h, phosphorylated eIF2α Ser51, read-out: GCN2 Biomarker (IC50)
Summary of the method: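 U2OS cells adhered overnight, then given compound (top 40 μM, 4-fold serial dilutions) plus 10 μM borrelidin for 1 h at 37 °C. Lysates assayed for eIF2α phospho-Ser51 by AlphaScreen SureFire; % inhibition versus borrelidin-only wells.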

Chain of GCN2 kinase (Q9P2K8 whole entry): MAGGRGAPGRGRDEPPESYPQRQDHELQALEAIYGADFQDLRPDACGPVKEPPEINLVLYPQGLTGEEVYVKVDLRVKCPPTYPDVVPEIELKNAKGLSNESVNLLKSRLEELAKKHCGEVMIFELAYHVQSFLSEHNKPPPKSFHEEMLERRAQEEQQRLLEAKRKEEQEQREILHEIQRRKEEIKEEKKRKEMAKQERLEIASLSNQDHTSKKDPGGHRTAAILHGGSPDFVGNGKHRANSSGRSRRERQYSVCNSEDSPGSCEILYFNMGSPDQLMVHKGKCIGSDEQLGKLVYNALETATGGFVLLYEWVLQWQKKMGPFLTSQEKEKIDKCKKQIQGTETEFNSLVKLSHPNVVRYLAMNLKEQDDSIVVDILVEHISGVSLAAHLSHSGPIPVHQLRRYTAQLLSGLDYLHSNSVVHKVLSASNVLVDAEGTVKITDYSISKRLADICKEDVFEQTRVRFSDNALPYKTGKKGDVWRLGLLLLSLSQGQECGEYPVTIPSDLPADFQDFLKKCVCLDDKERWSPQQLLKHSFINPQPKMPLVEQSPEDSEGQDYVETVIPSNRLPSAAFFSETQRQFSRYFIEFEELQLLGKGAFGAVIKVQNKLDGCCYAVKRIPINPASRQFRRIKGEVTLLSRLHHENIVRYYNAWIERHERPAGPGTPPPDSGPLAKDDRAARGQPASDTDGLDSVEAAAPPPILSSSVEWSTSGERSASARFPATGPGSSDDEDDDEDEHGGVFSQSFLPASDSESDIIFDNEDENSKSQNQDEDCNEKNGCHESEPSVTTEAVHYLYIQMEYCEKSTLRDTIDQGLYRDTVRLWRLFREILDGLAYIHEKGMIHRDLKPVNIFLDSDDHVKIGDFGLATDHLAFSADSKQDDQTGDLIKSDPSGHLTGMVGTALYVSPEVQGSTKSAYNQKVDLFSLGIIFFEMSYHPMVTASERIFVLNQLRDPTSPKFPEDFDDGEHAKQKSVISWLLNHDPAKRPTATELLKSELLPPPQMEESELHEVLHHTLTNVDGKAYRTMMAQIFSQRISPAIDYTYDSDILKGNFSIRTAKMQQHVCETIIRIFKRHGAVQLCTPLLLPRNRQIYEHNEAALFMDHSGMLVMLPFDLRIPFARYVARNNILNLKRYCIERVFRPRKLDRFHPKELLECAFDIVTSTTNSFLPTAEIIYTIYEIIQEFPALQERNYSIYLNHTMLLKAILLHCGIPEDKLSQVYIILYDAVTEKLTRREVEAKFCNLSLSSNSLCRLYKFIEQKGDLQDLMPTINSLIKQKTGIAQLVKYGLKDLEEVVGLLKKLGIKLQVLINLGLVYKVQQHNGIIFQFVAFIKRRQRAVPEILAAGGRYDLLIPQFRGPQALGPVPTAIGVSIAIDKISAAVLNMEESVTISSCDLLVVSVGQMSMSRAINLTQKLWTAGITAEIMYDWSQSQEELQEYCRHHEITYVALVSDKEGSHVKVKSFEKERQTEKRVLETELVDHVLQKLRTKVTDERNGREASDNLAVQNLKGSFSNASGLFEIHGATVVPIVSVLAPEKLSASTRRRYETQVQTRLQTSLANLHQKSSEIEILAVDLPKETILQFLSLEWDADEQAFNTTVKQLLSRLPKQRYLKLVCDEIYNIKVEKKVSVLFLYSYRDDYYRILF
Chain of intracellular GCN2 (phosphorylation of the GCN2 substrate eIF2α) (Q9P2K8 whole entry): as above

Row | SMILES | IC50 (GCN2 kinase) [µM] | IC50 [1] [µM] | Ki (GCN2 kinase) [µM]
1 | CS(=O)(=O)N1CC2(CCCN(c3ccnc(-c4cnc5ccc(C(F)(F)F)cn45)n3)C2)C1 [I-448, 2-(methylsulfonyl)-6-(2-(6-(trifluoromethyl)imidazo[1,2-a]pyridin-3-yl)pyrimidin-4-yl)-2,6-diazaspiro[3.5]nonane] | 0.01 to 0.1 | 0.5 to 5 | –
2 | O=C(Nc1ccncc1)[C@H]1CCCN(c2ccnc(-c3cnc4cc(F)c(Cl)cn34)n2)C1 [I-86, (S)-1-[2-(6-Chloro-7-fluoro-imidazo[1,2-a]pyridine-3-yl)-pyrimidin-4-yl]-piperidine-3-carboxylic acid pyridine-4-ylamide] | – | 0.5 to 5 | 0.01 to 0.1
3 | O=C(c1c[nH]cn1)N1CCN(c2ccnc(-c3cnc4ccc(C(F)(F)F)cn34)n2)CC1c1cn[nH]c1 (stereo not shown) [I-445, (2-(1H-pyrazol-4-yl)-4-(2-(6-(trifluoromethyl)imidazo[1,2-a]pyridin-3-yl)pyrimidin-4-yl)piperazin-1-yl)(1H-imidazol-4-yl)methanone] | 0.01 to 0.1 | 0.5 to 5 | –
4 | FC(F)(F)c1ccc2ncc(-c3ccnc(N4CCN(C[C@@H]5CCCOC5)[C@@H](c5cn[nH]c5)C4)n3)n2c1 [I-546, 3-(2-((S)-3-(1H-pyrazol-4-yl)-4-(((S)-tetrahydro-2H-pyran-3-yl)methyl)piperazin-1-yl)pyrimidin-4-yl)-6-(trifluoromethyl)imidazo[1,2-a]pyridine] | < 0.01 | < 0.5 | –
5 | c1ccc(Oc2ccc3ncc(-c4nccc(N5CCC[C@@H](c6cn[nH]c6)C5)n4)n3c2)cc1 [I-399] | 0.01 to 0.1 | 0.5 to 5 | –
6 | NC(=O)C1CN(c2ccnc(-c3cnc4ccc(Cl)cn34)n2)CCN1C1CC1 (stereo not shown) [I-286, 4-(2-(6-chloroimidazo[1,2-a]pyridin-3-yl)pyrimidin-4-yl)-1-cyclopropylpiperazine-2-carboxamide] | < 0.01 | 0.5 to 5 | –
7 | CS(=O)(=O)C1CC(N2CCN(c3ccnc(-c4cnc5ccc(C(F)(F)F)cn45)n3)C[C@H]2c2cn[nH]c2)C1 (stereo partly drawn) [I-490, 3-{4-[(R)-4-(3-Methanesulfonyl-cyclobutyl)-3-(1H-pyrazol-4-yl)-piperazin-1-yl]-pyrimidin-2-yl}-6-trifluoromethyl-imidazo[1,2-a]pyridine] | < 0.01 | < 0.5 | –
8 | OCC1CCN(c2ccnc(-c3cnc4cc(F)c(Cl)cn34)n2)CC1c1ccccc1 (stereo not shown) [I-83, {1-[2-(6-Chloro-7-fluoro-imidazo[1,2-a]pyridin-3-yl)-pyrimidin-4-yl]-3-phenyl-piperidin-4-yl}-methanol] | – | 0.5 to 5 | 0.01 to 0.1
9 | Cc1[nH]ncc1[C@H]1C[C@H](O)CN(c2ccnc(-c3cnc4ccc(C(F)(F)F)cn34)n2)C1 [I-307, (3 S, 5R)-5-(5-methyl-1H-pyrazol-4-yl)-1-(2-(6-(trifluoromethyl)imidazo[1,2-a]pyridin-3-yl)pyrimidin-4-yl)piperidin-3-ol] | 0.01 to 0.1 | 0.5 to 5 | –
10 | FC(F)(F)c1ccc2ncc(-c3nccc(N4CCN(Cc5cnc[nH]5)C(c5cn[nH]c5)C4)n3)n2c1 (stereo not shown) [I-385, 3-(4-(4-((1H-imidazol-5-yl)methyl)-3-(1H-pyrazol-4-yl)piperazin-1-yl)pyrimidin-2-yl)-6-(trifluoromethyl)imidazo[1,2-a]pyridine] | < 0.01 | 0.5 to 5 | –
11 | FC(F)(F)c1ccc2ncc(-c3ccnc(N4CCN(C[C@H]5CCCOC5)[C@H](c5cn[nH]c5)C4)n3)n2c1 [I-545, 3-(2-((R)-3-(1H-pyrazol-4-yl)-4-(((R)-tetrahydro-2H-pyran-3-yl)methyl)piperazin-1-yl)pyrimidin-4-yl)-6-(trifluoromethyl)imidazo[1,2-a]pyridine] | < 0.01 | < 0.5 | –
12 | CC1CN(c2nccc(-c3cnc4ccc(C(F)(F)F)cn34)n2)C(C)C(c2cn[nH]c2)N1 (single isomer, unassigned) [I-34, 3-[2-[2,5-dimethyl-3-(1H-pyrazol-4-yl)piperazin-1-yl]pyrimidin-4-yl]-6-(trifluoromethyl)imidazo[1,2-a]pyridine] | – | < 0.5 | < 0.01
13 | C[C@@H]1C[C@H](N=S(C)(C)=O)CN(c2ccnc(-c3cnc4ccc(OC(F)F)cn34)n2)C1 [I-291, dimethyl(((3 S,5R)-5-methyl-1-(2-(6-(difluoromethoxy)imidazo[1,2-a]pyridin-3-yl)pyrimidin-4-yl)piperidin-3-yl)imino)-λ6-sulfanone] | 0.01 to 0.1 | 0.5 to 5 | –
14 | N#C[C@H]1CCCN(c2ccnc(-c3cnc4ccc(C(F)(F)F)cn34)n2)C1 [I-227, (S)-1-(2-(6-(trifluoromethyl)imidazo[1,2-a]pyridin-3-yl)pyrimidin-4-yl)piperidine-3-carbonitrile] | 0.01 to 0.1 | 0.5 to 5 | –
15 | N#C[C@@H]1CN(c2ccnc(-c3cnc4ccc(C(F)(F)F)cn34)n2)CCO1 [I-232, (S)-4-(2-(6-(trifluoromethyl)imidazo[1,2-a]pyridin-3-yl)pyrimidin-4-yl)morpholine-2-carbonitrile] | 0.1 to 1 | 0.5 to 5 | –
16 | C[C@H]1[C@@H](CNS(C)(=O)=O)N(C2CC2)CCN1c1nccc(-c2cnc3ccc(C(F)(F)F)cn23)n1 [I-541, N-(((2R,3 S)-1-cyclopropyl-3-methyl-4-(4-(6-(trifluoromethyl)imidazo[1,2-a]pyridin-3-yl)pyrimidin-2-yl)piperazin-2-yl)methyl)methanesulfonamide] | 0.1 to 1 | 0.5 to 5 | –
17 | CC1CC(N=S(C)(C)=O)CN(c2ccnc(-c3cnc4ccc(C(F)(F)F)cn34)n2)C1 (stereo not shown) [I-32, dimethyl((5-methyl-1-(2-(6-(trifluoromethyl)imidazo[1,2-a]pyridin-3-yl)pyrimidin-4-yl)piperidin-3-yl)imino)-λ^6-sulfanone] | – | 0.5 to 5 | 0.01 to 0.1
18 | Cc1n[nH]cc1C1CN(c2ccnc(-c3cnc4ccc(C(F)(F)F)cn34)n2)CC(C)O1 (stereo not shown) [I-358, 2-methyl-6-(3-methyl-1H-pyrazol-4-yl)-4-(2-(6-(trifluoromethyl)imidazo[1,2-a]pyridin-3-yl)pyrimidin-4-yl)morpholine] | < 0.01 | < 0.5 | –
19 | NC(=O)C1CN(c2ccnc(-c3cnc4cc(F)c(Cl)cn34)n2)CCN1C1CC1 (stereo not shown) [I-389, 4-(2-(6-chloro-7-fluoroimidazo[1,2-a]pyridin-3-yl)pyrimidin-4-yl)-1-cyclopropylpiperazine-2-carboxamide] | 0.01 to 0.1 | 0.5 to 5 | –
20 | CC1(C)CN(c2ccnc(-c3cnc4ccc(C(F)(F)F)cn34)n2)CCN1C(=O)C1CCC(=O)CC1 [I-492, 4-(2,2-dimethyl-4-(2-(6-(trifluoromethyl)imidazo[1,2-a]pyridin-3-yl)pyrimidin-4-yl)piperazine-1-carbonyl)cyclohexan-1-one] | 0.01 to 0.1 | 0.5 to 5 | –
21 | Fc1cc2ncc(-c3nccc(N4CCOC(c5ccccn5)C4)n3)n2cc1Cl (stereo not shown) [I-88, 6-Chloro-7-fluoro-3-[4-(2-pyridin-2-yl-morpholin-4-yl)-pyrimidin-2-yl]-imidazo[1,2-a]pyridine] | – | < 0.5 | 0.1 to 1
22 | Cn1nccc1C(=O)N1CCN(c2ccnc(-c3cnc4ccc(C(F)(F)F)cn34)n2)CC1c1cn[nH]c1 (stereo not shown) [I-419, (2-(1H-pyrazol-4-yl)-4-(2-(6-(trifluoromethyl)imidazo[1,2-a]pyridin-3-yl)pyrimidin-4-yl)piperazin-1-yl)(1-methyl-1H-pyrazol-5-yl)methanone] | 0.01 to 0.1 | 0.5 to 5 | –
23 | FC(F)(F)c1ccc2ncc(-c3cccc(N4CCOC(c5cn[nH]c5)C4)n3)n2c1 (stereo not shown) [I-12, 2-(1H-Pyrazol-4-yl)-4-[6-[6-(trifluoromethyl)imidazo[1,2-a]pyridin-3-yl]-2-pyridyl]morpholine] | – | < 0.5 | < 0.01
24 | c1ccc(Oc2ccc3ncc(-c4nccc(N5CCC[C@H](c6cn[nH]c6)C5)n4)n3c2)cc1 [I-398, 2-{6-phenoxyimidazo[1,2-a]pyridin-3-yl}-4-[(3R)-3-(1H-pyrazol-4-yl)piperidin-1-yl]pyrimidine] | 0.1 to 1 | 0.5 to 5 | –
25 | CC1CN(c2ccnc(-c3cnc4ccc(C(F)(F)F)cn34)n2)CC(C)N1CC#N (stereo not shown) [I-393, 2-(2,6-dimethyl-4-(2-(6-(trifluoromethyl)imidazo[1,2-a]pyridin-3-yl)pyrimidin-4-yl)piperazin-1-yl)acetonitrile] | 0.1 to 1 | 0.5 to 5 | –
26 | CS(=O)(=O)NC[C@@H]1CN(c2ccnc(-c3cnc4ccc(C(F)(F)F)cn34)n2)CCO1 [I-1, N-[[(2S)-4-[2-[6-(Trifluoromethyl)imidazo[1,2-a]pyridin-3-yl]pyrimidin-4-yl]morpholin-2-yl]methyl]methanesulfonamide] | – | 0.5 to 5 | 0.01 to 0.1
27 | Cc1oncc1[C@@H]1CN(c2ccnc(-c3cnc4ccc(C(F)(F)F)cn34)n2)C[C@@H](C)O1 [I-343, (2R,6R)-2-methyl-6-(5-methylisoxazol-4-yl)-4-(2-(6-(trifluoromethyl)imidazo[1,2-a]pyridin-3-yl)pyrimidin-4-yl)morpholine] | 0.1 to 1 | 0.5 to 5 | –
28 | CC(=O)N1[C@H](C)CN(c2ccnc(-c3cnc4ccc(C(F)(F)F)cn34)n2)C[C@@H]1C [I-414, 1-(cis-2,6-dimethyl-4-(2-(6-(trifluoromethyl)imidazo[1,2-a]pyridin-3-yl)pyrimidin-4-yl)piperazin-1-yl)ethan-1-one] | 0.01 to 0.1 | 0.5 to 5 | –
29 | C[C@H]1CN(c2nccc(-c3cnc4cc(F)c(Cl)cn34)n2)C[C@H](c2cn[nH]c2)O1 [I-275, (2S,6S)-4-(4-(6-chloro-7-fluoroimidazo[1,2-a]pyridin-3-yl)pyrimidin-2-yl)-2-methyl-6-(1H-pyrazol-4-yl)morpholine] | < 0.01 | 0.5 to 5 | –
